Measurements published in US7541346B2, “Pancratistatin cyclic phosphate prodrugs and phenpanstatin cyclic phosphate prodrugs” (Arizona Board of Regents, a body corporate of the State of …, priority 2003, dated 2009).
Values after ≈ are worked out from the molar mass of the structure shown. Read-outs that look alike come from different tables or passages of the source.

Key:
[1] = system: DU-145; test: Human cancer cell line inhibitory activity, Prostate DU-145; format: cell-based; conditions: for GI50: Homo sapiens, DU-145, read-out: GI50 Prostate DU-145
[2] = system: BXPC-3; test: Human cancer cell line inhibitory activity, Pancreas-a BXPC-3; format: cell-based; conditions: for GI50: Homo sapiens, BXPC-3, read-out: GI50 Pancreas-a BXPC-3
[3] = system: NCI-H460; test: Human cancer cell line inhibitory activity, Lung-NSC NCI-H460; format: cell-based; conditions: for GI50: Homo sapiens, NCI-H460, read-out: GI50 Lung-NSC NCI-H460
[4] = system: SF268; test: Human cancer cell line inhibitory activity, CNS SF268; format: cell-based; conditions: for GI50: Homo sapiens, SF-268, read-out: GI50 CNS SF268
[5] = system: MCF-7; test: Human cancer cell line inhibitory activity, Breast MCF-7; format: cell-based; conditions: for GI50: Homo sapiens, MCF7, read-out: GI50 Breast MCF-7
[6] = system: KM20L2; test: Human cancer cell line inhibitory activity, Colon KM20L2; format: cell-based; conditions: for GI50: Homo sapiens, KM-20L2, read-out: GI50 Colon KM20L2
[7] = freeze dried solid
Method: Sodium pancratistatin 3,4-cyclic phosphate (5a, 0.0165 g, 0.04 mmol) was dissolved in water (1 ml) and eluted through a column containing Amberlite IR 120 (H+) resin.

[8] = system: Encephalitozoon intestinalis; conditions: in vitro; cited from earlier work

Structure (SMILES)	GI50 Prostate DU-145 [1]	GI50 Pancreas-a BXPC-3 [2]	GI50 Lung-NSC NCI-H460 [3]	GI50 CNS SF268 [4]	GI50 Breast MCF-7 [5]	GI50 Colon KM20L2 [6]	other results
O=C1N[C@H]2[C@H](OP(=O)([O-])[O-])[C@H](O)[C@@H](O)[C@H](O)[C@@H]2c2cc3c(c(O)c21)OCO3.[Mg+2] [Compound 4e, Magnesium Pancratistatin 4-O-Phosphate]	0.22 µg/mL	0.40 µg/mL	0.42 µg/mL	0.36 µg/mL	0.44 µg/mL	0.36 µg/mL	–
C=C[C@H]1CN2CC[C@H]1C[C@H]2[C@H](O)c1ccnc2ccc(OC)cc12.O=C1N[C@H]2[C@H](OP(=O)(O)O)[C@H](O)[C@@H](O)[C@H](O)[C@@H]2c2cc3c(c(O)c21)OCO3 [Compound 4k, Quinium Pancratistatin 4-O-Phosphate]	0.15 µg/mL	0.23 µg/mL	0.31 µg/mL	0.28 µg/mL	0.35 µg/mL	0.22 µg/mL	–
O=C(O[C@H]1[C@H](O)[C@@H](O)[C@@H](O)[C@@H]2NC(=O)c3c(cc4c(c3O)OCO4)[C@H]21)c1ccccc1 [Compound 3a, phenpanstatin]	–	–	–	–	–	–	GI50 [1]: 0.00021 µg/mL (≈ 0.000489 µM); GI50 [2]: 0.0019 µg/mL (≈ 0.00442 µM); GI50 [3]: 0.0001 µg/mL (≈ 0.000233 µM); GI50 [4]: 0.00055 µg/mL (≈ 0.00128 µM); GI50 [5]: 0.00031 µg/mL (≈ 0.000722 µM); GI50 [6]: 0.00037 µg/mL (≈ 0.000862 µM)
O=C1N[C@H]2[C@H](OP(=O)([O-])[O-])[C@H](O)[C@@H](O)[C@H](O)[C@@H]2c2cc3c(c(O)c21)OCO3.[Na+].[Na+] [Compound 4a, Sodium Pancratistatin 4-O-phosphate]	0.94 µg/mL	0.18 µg/mL	0.38 µg/mL	0.12 µg/mL	0.18 µg/mL	0.24 µg/mL	–
O=C(O[C@H]1[C@H](O)[C@H]2OP(=O)([O-])O[C@H]2[C@@H]2NC(=O)c3c(cc4c(c3O)OCO4)[C@H]21)c1ccccc1.[Na+] [Compound 3b, Sodium Phenpanstatin 3,4,O-cyclic Phosphate]	–	–	–	–	–	–	GI50 Prostate DU-145 ([1]; human cancer cell line DU-145): 0.13 µg/mL; GI50 Pancreas-a BXPC-3 ([2]; human cancer cell line BXPC-3): 0.25 µg/mL; GI50 Lung-NSC NCI-H460 ([3]; human cancer cell line NCI-H460): 0.029 µg/mL; GI50 CNS SF268 ([4]; human cancer cell line SF268): 0.17 µg/mL; GI50 Breast MCF-7 ([5]; human cancer cell line MCF-7): 0.041 µg/mL; GI50 Colon KM20L2 ([6]; human cancer cell line KM20L2): 0.13 µg/mL
O=C1N[C@@H]2C(=C[C@H](O)[C@@H](O)[C@H]2O)c2cc3c(c(O)c21)OCO3 [Compound 2a, narciclasine, reference compound]	0.0032 µg/mL (≈ 0.0104 µM)	0.0035 µg/mL (≈ 0.0114 µM)	0.0084 µg/mL (≈ 0.0273 µM)	0.0031 µg/mL (≈ 0.0101 µM)	0.0032 µg/mL (≈ 0.0104 µM)	0.0032 µg/mL (≈ 0.0104 µM)	–
O=C1N[C@H]2[C@H](OP(=O)(O)O)[C@H](O)[C@@H](O)[C@H](O)[C@@H]2c2cc3c(c(O)c21)OCO3 [Compound 4b, Pancratistatin 4-O-phosphoric Acid]	0.20 µg/mL (≈ 0.494 µM)	0.36 µg/mL (≈ 0.888 µM)	0.42 µg/mL (≈ 1.04 µM)	0.35 µg/mL (≈ 0.864 µM)	0.43 µg/mL (≈ 1.06 µM)	0.33 µg/mL (≈ 0.814 µM)	stability of the material [7]: unstable and decomposed over several days
O=C1N[C@H]2[C@H](OP(=O)([O-])[O-])[C@H](O)[C@@H](O)[C@H](O)[C@@H]2c2cc3c(c(O)c21)OCO3.[Ca+2] [Compound 4f, Calcium Pancratistatin 4-O-Phosphate]	0.12 µg/mL	0.25 µg/mL	0.27 µg/mL	0.26 µg/mL	0.36 µg/mL	0.23 µg/mL	–
C=C[C@H]1CN2CC[C@H]1C[C@@H]2[C@@H](O)c1ccnc2ccc(OC)cc12.O=C1N[C@H]2[C@H](OP(=O)(O)O)[C@H](O)[C@@H](O)[C@H](O)[C@@H]2c2cc3c(c(O)c21)OCO3 [Compound 4l, Quinidium Pancratistatin 4-O-Phosphate]	0.20 µg/mL	0.34 µg/mL	0.36 µg/mL	0.27 µg/mL	0.38 µg/mL	0.23 µg/mL	–
C1COCCN1.O=C1N[C@H]2[C@H](OP(=O)(O)O)[C@H](O)[C@@H](O)[C@H](O)[C@@H]2c2cc3c(c(O)c21)OCO3 [Compound 4i, Morpholinium Pancratistatin 4-O-Phosphate]	0.18 µg/mL	0.29 µg/mL	0.46 µg/mL	0.38 µg/mL	0.40 µg/mL	0.37 µg/mL	–
C1CNCCN1.O=C1N[C@H]2[C@H](OP(=O)(O)O)[C@H](O)[C@@H](O)[C@H](O)[C@@H]2c2cc3c(c(O)c21)OCO3 [Compound 4h, Piperazinium Pancratistatin 4-O-Phosphate]	0.21 µg/mL	0.31 µg/mL	0.35 µg/mL	0.27 µg/mL	0.38 µg/mL	0.24 µg/mL	–
O=C1N[C@H]2[C@H](OP(=O)([O-])O)[C@H](O)[C@@H](O)[C@H](O)[C@@H]2c2cc3c(c(O)c21)OCO3.[Li+] [Compound 4c, Lithium Pancratistatin 4-O-phosphate]	0.20 µg/mL	0.30 µg/mL	0.35 µg/mL	0.28 µg/mL	0.39 µg/mL	0.25 µg/mL	–
O=C1N[C@H]2[C@H](OP(=O)(O)O)[C@H](O)[C@@H](O)[C@H](O)[C@@H]2c2cc3c(c(O)c21)OCO3.c1c[nH]cn1 [Compound 4j, Imidazolium Pancratistatin 4-O-Phosphate]	0.13 µg/mL	0.25 µg/mL	0.25 µg/mL	0.21 µg/mL	0.33 µg/mL	0.13 µg/mL	–
O=C1N[C@H]2[C@H](OP(=O)([O-])[O-])[C@H](O)[C@@H](O)[C@H](O)[C@@H]2c2cc3c(c(O)c21)OCO3.[K+].[K+] [Compound 4d, Potassium Pancratistatin 4-O-phosphate]	0.22 µg/mL	0.45 µg/mL	0.40 µg/mL	0.39 µg/mL	0.46 µg/mL	0.30 µg/mL	–
O=C1N[C@H]2[C@H](OP(=O)([O-])[O-])[C@H](O)[C@@H](O)[C@H](O)[C@@H]2c2cc3c(c(O)c21)OCO3.[Zn+2] [Compound 4g, Zinc Pancratistatin 4-O-Phosphate]	0.17 µg/mL	0.27 µg/mL	0.42 µg/mL	0.38 µg/mL	0.47 µg/mL	0.30 µg/mL	–
O=C1N[C@H]2[C@@H]3OP(=O)([O-])O[C@@H]3[C@@H](O)[C@H](O)[C@@H]2c2cc3c(c(O)c21)OCO3.[Na+] [Compound 5a, Sodium Pancratistatin 3,4-cyclic Phosphate]	2.3 µg/mL	3.3 µg/mL	3.8 µg/mL	2.9 µg/mL	2.9 µg/mL	3.7 µg/mL	–
O=C1N[C@H]2[C@H](O)[C@H](O)[C@@H](O)[C@H](O)[C@@H]2c2cc3c(c(OP(=O)([O-])[O-])c21)OCO3.[Na+].[Na+] [Compound 1b, sodium pancratistatin 7-O-phosphate, reference compound]	0.026 µg/mL	0.20 µg/mL	0.19 µg/mL	0.079 µg/mL	0.20 µg/mL	0.17 µg/mL	–
O=C1N[C@H]2[C@H](O)[C@H](O)[C@@H](O)[C@H](O)[C@@H]2c2cc3c(c(O)c21)OCO3 [Compound 1a, (+)-pancratistatin, reference compound]	–	–	–	–	–	–	GI50 [1]: 0.015 µg/mL (≈ 0.0461 µM); GI50 [2]: 0.02 µg/mL (≈ 0.0615 µM); GI50 [3]: 0.032 µg/mL (≈ 0.0984 µM); activity against microspirochesis [8]: remarkable activity; GI50 [4]: 0.014 µg/mL (≈ 0.043 µM); GI50 [5]: 0.023 µg/mL (≈ 0.0707 µM); GI50 [6]: 0.025 µg/mL (≈ 0.0769 µM)
